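Where inhibition never reached the appropriate level, the endpoint shown equals the highest concentration tested. Otherwise, values were interpolated linearly from a five-concentration, 48-hour dose response in 96-well plates. TGI: concentration producing complete growth inhibition.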
Assays:
Assay in all cases: growth of human tumour cells (NCI), 48 h
ACHN renal = system: ACHN renal
EKVX NSCLC = system: EKVX NSCLC
HS 578T breast = system: HS 578T breast
NCI-H23 lung = system: NCI-H23 lung
NCI/ADR-RES ovarian = system: NCI/ADR-RES ovarian
OVCAR-3 ovarian = system: OVCAR-3 ovarian
OVCAR-4 ovarian = system: OVCAR-4 ovarian
OVCAR-5 ovarian = system: OVCAR-5 ovarian
OVCAR-8 ovarian = system: OVCAR-8 ovarian
T-47D breast = system: T-47D breast
BT-549 breast = system: BT-549 breast
NCI-H522 lung = system: NCI-H522 lung

C[C@@H]1OC2(O)[C@@H]3CCCN3C(=O)N(Cc3ccccc3)N2C1=O (stereo not given in full)
TGI (ACHN renal): > 100 µM
TGI (EKVX NSCLC): > 100 µM
TGI (HS 578T breast): > 100 µM
TGI (NCI-H23 lung): > 100 µM
TGI (NCI/ADR-RES ovarian): > 100 µM
TGI (OVCAR-3 ovarian): > 100 µM
TGI (OVCAR-4 ovarian): > 100 µM
TGI (OVCAR-5 ovarian): > 100 µM
TGI (OVCAR-8 ovarian): > 100 µM
TGI (T-47D breast): > 100 µM

C/C(=N/NC(=S)N1CCCC1)c1cccc(/C(C)=N\NC(=S)N2CCCC2)n1
TGI (ACHN renal): 3.4 µM
TGI (BT-549 breast): 5.13 µM
TGI (EKVX NSCLC): 3.49 µM
TGI (HS 578T breast): 25.2 µM
TGI (NCI-H23 lung): 6.5 µM
TGI (NCI-H522 lung): 7.77 µM
TGI (NCI/ADR-RES ovarian): 7.62 µM
TGI (OVCAR-3 ovarian): 2.63 µM
TGI (OVCAR-5 ovarian): 6.85 µM
TGI (OVCAR-8 ovarian): 2.35 µM

CN1CCN(C(=S)N(C)C(=O)c2cccs2)CC1
TGI (ACHN renal): > 100 µM
TGI (BT-549 breast): > 100 µM
TGI (HS 578T breast): > 100 µM
TGI (NCI-H23 lung): > 100 µM
TGI (NCI-H522 lung): > 100 µM
TGI (OVCAR-3 ovarian): > 100 µM
TGI (OVCAR-4 ovarian): > 100 µM
TGI (OVCAR-5 ovarian): > 100 µM
TGI (OVCAR-8 ovarian): > 100 µM
TGI (T-47D breast): > 100 µM

CO[C@H](c1ccccc1)[C@H](O)[C@](O)(c1ccccc1)P(=O)(OC)OC
TGI (ACHN renal): > 100 µM
TGI (BT-549 breast): > 100 µM
TGI (EKVX NSCLC): > 100 µM
TGI (NCI-H23 lung): > 100 µM
TGI (NCI-H522 lung): > 100 µM
TGI (NCI/ADR-RES ovarian): > 100 µM
TGI (OVCAR-3 ovarian): > 100 µM
TGI (OVCAR-4 ovarian): > 100 µM
TGI (OVCAR-5 ovarian): > 100 µM
TGI (OVCAR-8 ovarian): > 100 µM
TGI (T-47D breast): > 100 µM

CSC(=N)N1N=C2c3ccccc3CC[C@@H]2[C@@H]1c1ccccc1
TGI (ACHN renal): 50.2 µM
TGI (EKVX NSCLC): 44.4 µM
TGI (NCI-H23 lung): 35.3 µM
TGI (NCI-H522 lung): 27.8 µM
TGI (OVCAR-3 ovarian): 36 µM
TGI (OVCAR-4 ovarian): 49.3 µM
TGI (OVCAR-5 ovarian): 34.7 µM
TGI (OVCAR-8 ovarian): 29.1 µM

COC(=O)/C=C(\S/C(=C(/c1ccc(OC)cc1)n1cc(C(=O)OC)c(C(=O)OC)n1)c1ccc(OC)cc1)C(=O)OC
TGI (ACHN renal): 18.5 µM
TGI (BT-549 breast): > 100 µM
TGI (EKVX NSCLC): 49.5 µM
TGI (HS 578T breast): > 100 µM
TGI (NCI-H23 lung): > 100 µM
TGI (NCI/ADR-RES ovarian): > 100 µM
TGI (OVCAR-3 ovarian): 13.2 µM
TGI (OVCAR-4 ovarian): 68.3 µM
TGI (OVCAR-5 ovarian): 69.7 µM
TGI (OVCAR-8 ovarian): 4.8 µM
TGI (T-47D breast): 10.2 µM

O=C(NN1C(=O)c2ccccc2C1=O)c1ccccc1Nc1ccccc1C(=O)NN1C(=O)c2ccccc2C1=O
TGI (ACHN renal): > 100 µM
TGI (BT-549 breast): > 100 µM
TGI (EKVX NSCLC): > 100 µM
TGI (NCI-H23 lung): > 100 µM
TGI (NCI-H522 lung): > 100 µM
TGI (NCI/ADR-RES ovarian): > 100 µM
TGI (OVCAR-3 ovarian): > 100 µM
TGI (OVCAR-4 ovarian): > 100 µM
TGI (OVCAR-5 ovarian): > 100 µM
TGI (OVCAR-8 ovarian): > 100 µM

CC(C)N(c1cc2c(cc1F)c(=O)c(C(=O)O)cn2-c1ccc(N2CCN(C)CC2)cn1)C(C)C
TGI (BT-549 breast): > 100 µM
TGI (EKVX NSCLC): > 100 µM
TGI (HS 578T breast): > 100 µM
TGI (NCI-H23 lung): > 100 µM
TGI (NCI/ADR-RES ovarian): > 100 µM
TGI (OVCAR-3 ovarian): > 100 µM
TGI (OVCAR-4 ovarian): > 100 µM
TGI (OVCAR-5 ovarian): > 100 µM
TGI (OVCAR-8 ovarian): > 100 µM
TGI (T-47D breast): > 100 µM

COC(=O)c1c(C(=O)OC)c(C(c2ccccc2)c2ccccc2)n(-c2ccccc2)c1Cl
TGI (ACHN renal): > 10 µM
TGI (BT-549 breast): > 10 µM
TGI (EKVX NSCLC): > 10 µM
TGI (HS 578T breast): > 10 µM
TGI (NCI-H23 lung): > 10 µM
TGI (NCI/ADR-RES ovarian): > 10 µM
TGI (OVCAR-3 ovarian): > 10 µM
TGI (OVCAR-4 ovarian): > 10 µM
TGI (OVCAR-5 ovarian): > 10 µM
TGI (OVCAR-8 ovarian): > 10 µM
TGI (T-47D breast): > 10 µM

O=C(CCCN1CC=C(n2c(=O)[nH]c3ccccc32)CC1)c1cccs1
TGI (ACHN renal): > 100 µM
TGI (EKVX NSCLC): > 100 µM
TGI (NCI-H23 lung): > 100 µM
TGI (NCI-H522 lung): > 100 µM
TGI (NCI/ADR-RES ovarian): > 100 µM
TGI (OVCAR-3 ovarian): > 100 µM
TGI (OVCAR-4 ovarian): > 100 µM
TGI (OVCAR-5 ovarian): > 100 µM
TGI (OVCAR-8 ovarian): > 100 µM
TGI (T-47D breast): > 100 µM

COc1c(O)cc2c(c1O)C1O[C@H](CO)C(O)[C@H](O)[C@H]1OC2=O (stereo not given in full)
TGI (ACHN renal): > 100 µM
TGI (BT-549 breast): > 100 µM
TGI (NCI-H23 lung): > 100 µM
TGI (NCI-H522 lung): > 100 µM
TGI (NCI/ADR-RES ovarian): > 100 µM
TGI (OVCAR-3 ovarian): > 100 µM
TGI (OVCAR-4 ovarian): > 100 µM
TGI (OVCAR-5 ovarian): > 100 µM
TGI (OVCAR-8 ovarian): > 100 µM
TGI (T-47D breast): > 100 µM

O=C1c2ccccc2C(=O)c2c(O)c(O)cc(O)c21
TGI (ACHN renal): > 100 µM
TGI (EKVX NSCLC): > 100 µM
TGI (NCI-H23 lung): > 100 µM
TGI (NCI-H522 lung): 96.1 µM
TGI (OVCAR-3 ovarian): 64.3 µM
TGI (OVCAR-4 ovarian): > 100 µM
TGI (OVCAR-5 ovarian): > 100 µM
TGI (OVCAR-8 ovarian): > 100 µM

CC(CCC(=O)O)[C@H]1CCC2[C@H]3C(CC(=O)[C@@]21C)[C@@]1(C)CCC(O)C[C@H]1C[C@@H]3O (stereo not given in full)
TGI (ACHN renal): > 100 µM
TGI (BT-549 breast): > 100 µM
TGI (EKVX NSCLC): > 100 µM
TGI (NCI-H23 lung): > 100 µM
TGI (NCI-H522 lung): > 100 µM
TGI (NCI/ADR-RES ovarian): > 100 µM
TGI (OVCAR-4 ovarian): > 100 µM
TGI (OVCAR-5 ovarian): > 100 µM
TGI (OVCAR-8 ovarian): > 100 µM
TGI (T-47D breast): > 100 µM

COc1ccccc1N1C(=O)/C(=C\c2cc(OC)c(OC)c(OC)c2)S(=O)(=O)C1c1ccccc1 (stereo not given)
TGI (ACHN renal): > 100 µM
TGI (BT-549 breast): > 100 µM
TGI (HS 578T breast): > 100 µM
TGI (NCI-H23 lung): > 100 µM
TGI (NCI-H522 lung): 50.7 µM
TGI (NCI/ADR-RES ovarian): 72.1 µM
TGI (OVCAR-3 ovarian): > 100 µM
TGI (OVCAR-4 ovarian): > 100 µM
TGI (OVCAR-8 ovarian): > 100 µM
TGI (T-47D breast): > 100 µM

O=C(Nc1ccccc1)C(=O)C(C(=O)c1ccccc1)C(c1ccccc1)c1ccccc1 (stereo not given)
TGI (EKVX NSCLC): > 10 µM
TGI (NCI-H23 lung): > 10 µM
TGI (OVCAR-4 ovarian): > 10 µM
TGI (OVCAR-8 ovarian): > 10 µM
TGI (T-47D breast): > 10 µM

O=C(/C=C\c1ccccc1-c1ccccc1)c1ccccc1
TGI (ACHN renal): > 100 µM
TGI (EKVX NSCLC): > 100 µM
TGI (HS 578T breast): > 100 µM
TGI (NCI-H23 lung): > 100 µM
TGI (NCI-H522 lung): > 100 µM
TGI (NCI/ADR-RES ovarian): > 100 µM
TGI (OVCAR-3 ovarian): > 100 µM
TGI (OVCAR-4 ovarian): > 100 µM
TGI (OVCAR-5 ovarian): > 100 µM
TGI (OVCAR-8 ovarian): > 100 µM
TGI (T-47D breast): 96 µM

COc1ccc(N2C(=O)/C(=C\c3cc(OC)c(OC)c(OC)c3)S(=O)(=O)C2c2ccccc2)cc1 (stereo not given)
TGI (ACHN renal): > 100 µM
TGI (BT-549 breast): > 100 µM
TGI (HS 578T breast): > 100 µM
TGI (NCI-H23 lung): > 100 µM
TGI (NCI-H522 lung): > 100 µM
TGI (NCI/ADR-RES ovarian): 78.9 µM
TGI (OVCAR-3 ovarian): > 100 µM
TGI (OVCAR-4 ovarian): > 100 µM
TGI (OVCAR-8 ovarian): > 100 µM
TGI (T-47D breast): > 100 µM

COc1ccc(C(CC(=O)c2ccccc2)C(=O)c2ccc3c(c2)OCO3)cc1 (stereo not given)
TGI (ACHN renal): > 100 µM
TGI (EKVX NSCLC): > 100 µM
TGI (NCI-H23 lung): > 100 µM
TGI (NCI/ADR-RES ovarian): > 100 µM
TGI (OVCAR-8 ovarian): > 100 µM
TGI (T-47D breast): > 100 µM

Cc1ccc(S(=O)(=O)n2cnc(CC(NC(=O)C3CCC(=O)N3C(=O)OCc3ccccc3)C(=O)N3CCCC3C(=O)NN)c2)cc1 (stereo not given)
TGI (ACHN renal): > 100 µM
TGI (BT-549 breast): > 100 µM
TGI (EKVX NSCLC): > 100 µM
TGI (HS 578T breast): > 100 µM
TGI (NCI-H23 lung): > 100 µM
TGI (OVCAR-5 ovarian): > 100 µM
TGI (OVCAR-8 ovarian): > 100 µM

Cc1cc2nc3c(C#N)c(-c4ccccc4)cc(Nc4ccc(F)cc4)n3c2cc1C
TGI (ACHN renal): > 100 µM
TGI (BT-549 breast): 56.3 µM
TGI (EKVX NSCLC): 52.9 µM
TGI (NCI-H23 lung): 47.2 µM
TGI (NCI-H522 lung): 30.7 µM
TGI (NCI/ADR-RES ovarian): 71.6 µM
TGI (OVCAR-3 ovarian): 46.4 µM
TGI (OVCAR-4 ovarian): > 100 µM
TGI (OVCAR-5 ovarian): 45.2 µM
TGI (OVCAR-8 ovarian): 25.5 µM
TGI (T-47D breast): > 100 µM

O=C(O)CCSc1nnc(COc2ccc(Cl)cc2)n1-c1ccccc1
TGI (ACHN renal): > 100 µM
TGI (EKVX NSCLC): > 100 µM
TGI (NCI-H23 lung): > 100 µM
TGI (NCI-H522 lung): > 100 µM
TGI (NCI/ADR-RES ovarian): > 100 µM
TGI (OVCAR-3 ovarian): > 100 µM
TGI (OVCAR-4 ovarian): > 100 µM
TGI (OVCAR-5 ovarian): > 100 µM
TGI (OVCAR-8 ovarian): > 100 µM
TGI (T-47D breast): > 100 µM

C/C(=C/CNc1ncnc2c1ncn2CCC#N)CO
TGI (ACHN renal): > 100 µM
TGI (EKVX NSCLC): > 100 µM
TGI (HS 578T breast): > 100 µM
TGI (NCI-H23 lung): > 100 µM
TGI (NCI-H522 lung): > 100 µM
TGI (NCI/ADR-RES ovarian): > 100 µM
TGI (OVCAR-3 ovarian): > 100 µM
TGI (OVCAR-4 ovarian): > 100 µM
TGI (OVCAR-5 ovarian): > 100 µM
TGI (OVCAR-8 ovarian): > 100 µM
TGI (T-47D breast): > 100 µM
